Results taken from US6352958B1, “Cycloimido-substituted benzofused heterocyclic herbicides” (FMC Corporation, priority 1997, dated 2002).

How the values were obtained:
Assay type in all cases: in vivo
[1] = tested on: common cocklebur (Xanthium strumarium L.); experiment: Preemergence herbicidal activity, cocklebur; settings: Xanthium strumarium, pre-emergence, Rate of Application 0.3 Kg/Ha, examined after 12-17 days, read-out: PREEMERGENCE HERBICIDAL ACTIVITY (% CONTROL) XANPE
[2] = tested on: green foxtail (Setaria viridis); experiment: Preemergence herbicidal activity, green foxtail; settings: Setaria viridis, pre-emergence, Rate of Application 0.3 Kg/Ha, examined after 12-17 days, read-out: PREEMERGENCE HERBICIDAL ACTIVITY (% CONTROL) SETVI
[3] = tested on: blackgrass (Aloepecurus myosuroides); experiment: Postemergence herbicidal activity, blackgrass; settings: Alopecurus myosuroides, post-emergence, rate of application 0.3 Kg/Ha, rated after 12-17 days, read-out: Postemergence herbicidal activity (% control) ALOMY
[4] = tested on: green foxtail (Setaria viridis); experiment: Postemergence herbicidal activity, green foxtail; settings: Setaria viridis, post-emergence, rate of application 0.3 Kg/Ha, rated after 12-17 days, read-out: Postemergence herbicidal activity (% control) SETVI
[5] = tested on: common chickweed (Stellaria media); experiment: Preemergence herbicidal activity, chickweed; settings: Stellaria media, pre-emergence, Rate of Application 0.3 Kg/Ha, examined after 12-17 days, read-out: PREEMERGENCE HERBICIDAL ACTIVITY (% CONTROL) STEME
[6] = tested on: blackgrass (Aloepecurus myosuroides); experiment: Preemergence herbicidal activity, blackgrass; settings: Alopecurus myosuroides, pre-emergence, Rate of Application 0.3 Kg/Ha, examined after 12-17 days, read-out: PREEMERGENCE HERBICIDAL ACTIVITY (% CONTROL) ALOMY
[7] = tested on: soybean (Glycine max var. Winchester); experiment: Preemergence herbicidal activity, soybean; settings: Glycine max, pre-emergence, Rate of Application 0.3 Kg/Ha, examined after 12-17 days, read-out: PREEMERGENCE HERBICIDAL ACTIVITY (% CONTROL) SOY
[8] = tested on: wheat (Triticum aestivum var. Lew); experiment: Postemergence herbicidal activity, wheat; settings: Triticum aestivum, post-emergence, rate of application 0.3 Kg/Ha, rated after 12-17 days, read-out: Postemergence herbicidal activity (% control) WHT
[9] = tested on: morningglory (Ipomea lacunosa or Ipomea hederacea); experiment: Postemergence herbicidal activity, morningglory; settings: Ipomoea, post-emergence, rate of application 0.3 Kg/Ha, rated after 12-17 days, read-out: Postemergence herbicidal activity (% control) IPOSS
[10] = tested on: Johnsongrass (Sorghum halepense); experiment: Preemergence herbicidal activity, johnsongrass; settings: Sorghum halepense, pre-emergence, Rate of Application 0.3 Kg/Ha, examined after 12-17 days, read-out: PREEMERGENCE HERBICIDAL ACTIVITY (% CONTROL) SORHA
[11] = tested on: field corn (Zea mays var. Pioneer 3732); experiment: Postemergence herbicidal activity, corn; settings: Zea mays, post-emergence, rate of application 0.3 Kg/Ha, rated after 12-17 days, read-out: Postemergence herbicidal activity (% control) CRN
[12] = tested on: morningglory (Ipomea lacunosa or Ipomea hederacea); experiment: Preemergence herbicidal activity, morningglory; settings: Ipomoea, pre-emergence, Rate of Application 0.3 Kg/Ha, examined after 12-17 days, read-out: PREEMERGENCE HERBICIDAL ACTIVITY (% CONTROL) IPOSS
[13] = tested on: Johnsongrass (Sorghum halepense); experiment: Postemergence herbicidal activity, johnsongrass; settings: Sorghum halepense, post-emergence, rate of application 0.3 Kg/Ha, rated after 12-17 days, read-out: Postemergence herbicidal activity (% control) SORHA
[14] = tested on: common cocklebur (Xanthium strumarium L.); experiment: Postemergence herbicidal activity, cocklebur; settings: Xanthium strumarium, post-emergence, rate of application 0.3 Kg/Ha, rated after 12-17 days, read-out: Postemergence herbicidal activity (% control) XANPE

CC(C)c1nc2c(-n3c(=O)cc(C(F)(F)F)n(C)c3=O)c(F)cc(Cl)c2o1 [Compound 28, 1-METHYL-6-TRIFLUOROMETHYL-3-[7-CHLORO-5-FLUORO-2-(1-METHYLETHYL)BENZOXAZOL4-YL]-2,4(1H,3H)-PYRIMIDINEDIONE]
inhibition at 300 g/ha [1]: 100% | inhibition at 300 g/ha [2]: 100% | inhibition at 300 g/ha [3]: 100% | inhibition at 300 g/ha [4]: 100% | inhibition at 300 g/ha [5]: 100% | inhibition at 300 g/ha [6]: 100% | inhibition at 300 g/ha [7]: 100% | inhibition at 300 g/ha [8]: 80% | inhibition at 300 g/ha [9]: 100% | inhibition at 300 g/ha [10]: 100% | inhibition at 300 g/ha [11]: 80% | inhibition at 300 g/ha [12]: 100% | inhibition at 300 g/ha [13]: 95% | inhibition at 300 g/ha [14]: 90%

CCc1nc2c(-n3c(=O)cc(C(F)(F)F)n(C)c3=O)c(F)cc(Cl)c2[nH]1 [Compound 367, 3-(4-CHLORO-2-ETHYL-6-FLUOROBENZIMIDAZOL-7-YL)-1-METHYL-6-TRIFLUOROMETHYL-2,4(1H,3H)-PYRIMIDINEDIONE]
inhibition at 300 g/ha [1]: 100% | inhibition at 300 g/ha [2]: 100% | inhibition at 300 g/ha [3]: 100% | inhibition at 300 g/ha [4]: 100% | inhibition at 300 g/ha [5]: 100% | inhibition at 300 g/ha [6]: 90% | inhibition at 300 g/ha [7]: 100% | inhibition at 300 g/ha [8]: 100% | inhibition at 300 g/ha [9]: 100% | inhibition at 300 g/ha [10]: 100% | inhibition at 300 g/ha [11]: 100% | inhibition at 300 g/ha [12]: 100% | inhibition at 300 g/ha [13]: 100% | inhibition at 300 g/ha [14]: 100%

Cn1c(C(F)(F)F)cc(=O)n(-c2c(F)cc(Cl)c3[nH]c(C(F)(F)F)cc23)c1=O [Compound 500, 3-(7-CHLORO-5-FLUORO-2-TRIFLUOROMETHYLINDOL-4-YL)-1-METHYL-6-TRIFLUOROMETHYL-2,4(1H,3H)-PYRIMIDINEDIONE]
inhibition at 300 g/ha [1]: 100% | inhibition at 300 g/ha [2]: 100% | inhibition at 300 g/ha [3]: 80% | inhibition at 300 g/ha [4]: 100% | inhibition at 300 g/ha [5]: 100% | inhibition at 300 g/ha [6]: 75% | inhibition at 300 g/ha [7]: 95% | inhibition at 300 g/ha [8]: 65% | inhibition at 300 g/ha [9]: 100% | inhibition at 300 g/ha [10]: 100% | inhibition at 300 g/ha [11]: 95% | inhibition at 300 g/ha [12]: 100% | inhibition at 300 g/ha [13]: 100% | inhibition at 300 g/ha [14]: 100%
